Patent US11090319B2, “Therapeutic uses of pharmaceutical compositions comprising cyclic boronic acid ester derivatives” (Melinta Subsidiary Corp., priority 2010, dated 2021)
Like-named read-outs stand apart in the source and are kept apart here.

Tests used:
[1] = target: various β-lactamases (bacterial lysates) (Klebsiella pneumoniae, UniProt Q9F663); experiment: biochemical; type: biochemical
[2] = target: various β-lactamases (bacterial lysates) (Salmonella typhimurium, UniProt P0A1V8); experiment: biochemical; type: biochemical; settings: AZT IC50 KPX1001 OXA-2
Chain of various β-lactamases (bacterial lysates) (Salmonella typhimurium, UniProt P0A1V8) (P0A1V8 22-275): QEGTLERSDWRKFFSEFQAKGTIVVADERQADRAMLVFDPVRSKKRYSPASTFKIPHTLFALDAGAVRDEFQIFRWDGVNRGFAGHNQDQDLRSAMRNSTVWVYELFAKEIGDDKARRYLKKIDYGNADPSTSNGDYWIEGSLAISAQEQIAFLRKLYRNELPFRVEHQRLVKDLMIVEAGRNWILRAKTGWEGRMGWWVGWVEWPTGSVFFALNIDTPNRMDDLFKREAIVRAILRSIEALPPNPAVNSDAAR

[3] = target: various β-lactamases (bacterial lysates) (Escherichia coli, UniProt A0A5R8T042); experiment: biochemical; type: biochemical; settings: read-out: AZT IC50 KP1009 CTX-M-15
Chain of various β-lactamases (bacterial lysates) (Escherichia coli, UniProt A0A5R8T042) (A0A5R8T042 29-291): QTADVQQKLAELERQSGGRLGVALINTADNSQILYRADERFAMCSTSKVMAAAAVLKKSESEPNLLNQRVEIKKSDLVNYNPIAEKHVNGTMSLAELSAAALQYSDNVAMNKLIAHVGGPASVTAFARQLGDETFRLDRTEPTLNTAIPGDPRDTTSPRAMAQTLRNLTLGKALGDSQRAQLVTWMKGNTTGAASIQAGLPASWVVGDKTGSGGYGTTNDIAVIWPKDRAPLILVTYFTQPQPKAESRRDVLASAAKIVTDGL

[4] = target: various β-lactamases (bacterial lysates) (Pseudomonas aeruginosa, UniProt P14489); experiment: biochemical; type: biochemical; settings: AZT IC50 KP1007 OXA-10
Chain of various β-lactamases (bacterial lysates) (Pseudomonas aeruginosa, UniProt P14489) (P14489 20-266): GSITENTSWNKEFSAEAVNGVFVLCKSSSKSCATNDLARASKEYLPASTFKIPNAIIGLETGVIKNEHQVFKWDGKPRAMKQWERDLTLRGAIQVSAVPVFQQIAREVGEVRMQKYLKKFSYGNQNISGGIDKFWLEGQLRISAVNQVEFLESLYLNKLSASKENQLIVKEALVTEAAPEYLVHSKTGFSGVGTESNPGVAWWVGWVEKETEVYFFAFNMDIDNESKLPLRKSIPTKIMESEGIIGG

[5] = target: various β-lactamases (bacterial lysates) (Klebsiella pneumoniae, UniProt Q9F663, H272Y); experiment: biochemical; type: biochemical
Chain of various β-lactamases (bacterial lysates) (Klebsiella pneumoniae, UniProt Q9F663, H272Y) (Q9F663 whole entry H272Y, looked up): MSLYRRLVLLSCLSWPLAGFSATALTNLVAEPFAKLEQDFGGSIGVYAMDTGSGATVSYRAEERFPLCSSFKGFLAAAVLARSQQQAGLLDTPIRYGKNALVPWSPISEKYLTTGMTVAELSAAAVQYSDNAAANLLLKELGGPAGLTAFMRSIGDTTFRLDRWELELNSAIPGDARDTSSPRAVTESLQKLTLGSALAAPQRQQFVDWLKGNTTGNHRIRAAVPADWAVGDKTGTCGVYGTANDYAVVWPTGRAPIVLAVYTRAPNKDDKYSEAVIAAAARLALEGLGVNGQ

[6] = target: various β-lactamases (bacterial lysates) (Escherichia coli, UniProt A0A649V088); experiment: biochemical; type: biochemical; settings: read-out: AZT IC50 KP1005 CTX-M-14
Chain of various β-lactamases (bacterial lysates) (Escherichia coli, UniProt A0A649V088) (A0A649V088 29-291): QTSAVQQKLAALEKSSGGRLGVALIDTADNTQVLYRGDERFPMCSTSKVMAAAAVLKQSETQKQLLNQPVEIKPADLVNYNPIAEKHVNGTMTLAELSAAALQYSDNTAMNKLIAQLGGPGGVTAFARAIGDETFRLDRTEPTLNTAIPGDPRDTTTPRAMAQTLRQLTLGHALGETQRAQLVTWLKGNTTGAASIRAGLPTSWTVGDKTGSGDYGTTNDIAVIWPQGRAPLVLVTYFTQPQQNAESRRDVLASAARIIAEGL

[7] = test system: strains expressing class A ESBLs; type: cell-based
Procedure: Selected β-lactamase inhibitors were also tested for their ability to potentiate the monobactam tigemonam.

[8] = lysate KP1004 KPC-2, aztreonam cleavage, read-out: AZT IC50 KP1004 KPC-2 (converted)
[9] = lysate KP1008 KPC-2, aztreonam cleavage, read-out: AZT IC50 KP1008 KPC-2

Chain of various β-lactamases (bacterial lysates) (Klebsiella pneumoniae, UniProt Q9F663) (Q9F663 whole entry, looked up): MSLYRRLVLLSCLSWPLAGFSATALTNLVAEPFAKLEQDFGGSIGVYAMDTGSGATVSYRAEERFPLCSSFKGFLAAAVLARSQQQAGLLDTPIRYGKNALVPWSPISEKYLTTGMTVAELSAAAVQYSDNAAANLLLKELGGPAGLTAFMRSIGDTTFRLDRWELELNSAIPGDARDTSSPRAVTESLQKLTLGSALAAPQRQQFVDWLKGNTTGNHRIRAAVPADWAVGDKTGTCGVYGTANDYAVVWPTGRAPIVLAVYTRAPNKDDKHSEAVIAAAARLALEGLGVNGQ

| Structure (SMILES) | IC50 ([1]; AZT IC50 KP1004 KPC-2) | IC50 ([1]; AZT IC50 KP1008 KPC-2) | IC50 [2] | IC50 [3] | IC50 [4] | IC50 [5] | IC50 [6] | MPC4 CTX-M-14 KP1005 [7] | MPC4 CTX-M-15 KP1009 [7] | MPC4 SHV-5 ec308 [7] | MPC4 SHV-12 KP1010 [7] | MPC4 SHV-18 KP1012 [7] | MPC4 TEM-10 EC1009 [7] | MPC4 TEM-10 ec302 [7] | MPC4 TEM-26 ec304 [7] | IC50 [1, 8] | IC50 [1, 9] |
| --- | --- | --- | --- | --- | --- | --- | --- | --- | --- | --- | --- | --- | --- | --- | --- | --- | --- |
| O=C(O)[C@H]1/C(=C/CO)O[C@@H]2CC(=O)N21 [Clavulanic Acid, reference compound] | 3.72 µM | 11.1 µM | 0.402 µM | 1.24 µM | 7.43 µM | 7.43 µM | 0.275 µM | 2.5 µg/mL | 1.25 µg/mL | <=0.6 μg/mL | <=0.6 μg/mL | <=0.6 μg/mL | <=0.6 μg/mL | 2.5 µg/mL | <=0.6 μg/mL |  |  |
| O=C(O)C[C@@H]1CC[C@H](NC(=O)c2ccccc2)B(O)O1 [Compound 37, 2-((3R,6S)-3-benzamido-2-hydroxy-1,2-oxaborinan-6-yl)acetic acid] |  |  | 1.8 to 7.22 µM | < 1.8 µM | 1.8 to 7.22 µM | < 1.8 µM | < 1.8 µM | Z (key: X: MPC@4 of less than 2 μg/mL; Y: MPC@4 of 2 μg/mL to 10 μg/mL; Z: MPC@4 of greater than 10 μg/mL) | Z (key: X: MPC@4 of less than 2 μg/mL; Y: MPC@4 of 2 μg/mL to 10 μg/mL; Z: MPC@4 of greater than 10 μg/mL) | Z (key: X: MPC@4 of less than 2 μg/mL; Y: MPC@4 of 2 μg/mL to 10 μg/mL; Z: MPC@4 of greater than 10 μg/mL) | Z (key: X: MPC@4 of less than 2 μg/mL; Y: MPC@4 of 2 μg/mL to 10 μg/mL; Z: MPC@4 of greater than 10 μg/mL) | Z (key: X: MPC@4 of less than 2 μg/mL; Y: MPC@4 of 2 μg/mL to 10 μg/mL; Z: MPC@4 of greater than 10 μg/mL) | Z (key: X: MPC@4 of less than 2 μg/mL; Y: MPC@4 of 2 μg/mL to 10 μg/mL; Z: MPC@4 of greater than 10 μg/mL) | Z (key: X: MPC@4 of less than 2 μg/mL; Y: MPC@4 of 2 μg/mL to 10 μg/mL; Z: MPC@4 of greater than 10 μg/mL) | Z (key: X: MPC@4 of less than 2 μg/mL; Y: MPC@4 of 2 μg/mL to 10 μg/mL; Z: MPC@4 of greater than 10 μg/mL) | < 1.8 µM | < 1.8 µM |
| NCCSCC(=O)N[C@H]1CC[C@@H](CC(=O)O)OB1O [Compound 48, 2-((3R,6S)-3-(2-(2-aminoethylthio)acetamido)-2-hydroxy-1,2-oxaborinan-6-yl)acetic acid] |  |  | 1.72 to 6.89 µM | > 6.89 µM | > 6.89 µM | < 1.72 µM | 1.72 to 6.89 µM | Z (key: X: MPC@4 of less than 2 μg/mL; Y: MPC@4 of 2 μg/mL to 10 μg/mL; Z: MPC@4 of greater than 10 μg/mL) | Z (key: X: MPC@4 of less than 2 μg/mL; Y: MPC@4 of 2 μg/mL to 10 μg/mL; Z: MPC@4 of greater than 10 μg/mL) | Z (key: X: MPC@4 of less than 2 μg/mL; Y: MPC@4 of 2 μg/mL to 10 μg/mL; Z: MPC@4 of greater than 10 μg/mL) | Z (key: X: MPC@4 of less than 2 μg/mL; Y: MPC@4 of 2 μg/mL to 10 μg/mL; Z: MPC@4 of greater than 10 μg/mL) | Z (key: X: MPC@4 of less than 2 μg/mL; Y: MPC@4 of 2 μg/mL to 10 μg/mL; Z: MPC@4 of greater than 10 μg/mL) | Z (key: X: MPC@4 of less than 2 μg/mL; Y: MPC@4 of 2 μg/mL to 10 μg/mL; Z: MPC@4 of greater than 10 μg/mL) | Z (key: X: MPC@4 of less than 2 μg/mL; Y: MPC@4 of 2 μg/mL to 10 μg/mL; Z: MPC@4 of greater than 10 μg/mL) | Z (key: X: MPC@4 of less than 2 μg/mL; Y: MPC@4 of 2 μg/mL to 10 μg/mL; Z: MPC@4 of greater than 10 μg/mL) | < 1.72 µM | 1.72 to 6.89 µM |
| O=C(O)C[C@@H]1CC[C@H](NC(=O)Cc2cc(F)cc(F)c2)B(O)O1 [Compound 66, 2-((3R,6S)-3-(2-(3,5-difluorophenyl)acetamido)-2-hydroxy-1,2-oxaborinan-6-yl)acetic acid] |  |  | < 1.53 µM | > 6.11 µM | > 6.11 µM | < 1.53 µM | 1.53 to 6.11 µM |  |  |  |  |  |  |  |  | < 1.53 µM | < 1.53 µM |
